The results in this text go back to patent publication US20230139171A1 (SITA Information Networking Computing UK Limited, priority 2019, published 2023).

For orientation: IC50 means the midpoint of a concentration-inhibition curve.

The test system of test [1] is TLR7. In words: In vivo mouse TLR7 PD model (gardiquimod challenge, plasma IL-6 and IFN-alpha by ELISA). The settings on record: oral. Also on record: species or system C57BL/6 mice. The procedure: In Vivo Mouse TLR7 PD Model:
Adult male C57BL/6 mice were used for the experiments. Mice (7 to 10 per group) were randomized into different treatment groups based on body weight. Mice from the respective treatment groups were administered orally with vehicle or test compound. Thirty min after the oral administration of vehicle or test compound, mice were challenged with intraperitoneal injection of gardiquimod for TLR7 PD model. Ninety minutes after gardiquimod injection, mice were bled under isoflurane anaesthesia and plasma IL-6 and IFN-alpha levels were estimated by using commercially available ELISA kit (BD Biosciences, PBL Life Sciences). At the end of experiment, mean cytokine data was plotted and one way ANOVA with Dunnett's test was performed to calculate the significance of test compound treated group vs. vehicle control group. Percent inhibition of cytokine induction was calculated for test compound treated group vs vehicle control group.
(An ELISA detects its analyte on a solid surface through an enzyme-linked reagent.)

The target of test [2] is T1, human TLR8 (Homo sapiens, UniProt Q9NR97).
T1 construct: host or cells: HEK-Blue cells
T1 sequence (Q9NR97 27-1041): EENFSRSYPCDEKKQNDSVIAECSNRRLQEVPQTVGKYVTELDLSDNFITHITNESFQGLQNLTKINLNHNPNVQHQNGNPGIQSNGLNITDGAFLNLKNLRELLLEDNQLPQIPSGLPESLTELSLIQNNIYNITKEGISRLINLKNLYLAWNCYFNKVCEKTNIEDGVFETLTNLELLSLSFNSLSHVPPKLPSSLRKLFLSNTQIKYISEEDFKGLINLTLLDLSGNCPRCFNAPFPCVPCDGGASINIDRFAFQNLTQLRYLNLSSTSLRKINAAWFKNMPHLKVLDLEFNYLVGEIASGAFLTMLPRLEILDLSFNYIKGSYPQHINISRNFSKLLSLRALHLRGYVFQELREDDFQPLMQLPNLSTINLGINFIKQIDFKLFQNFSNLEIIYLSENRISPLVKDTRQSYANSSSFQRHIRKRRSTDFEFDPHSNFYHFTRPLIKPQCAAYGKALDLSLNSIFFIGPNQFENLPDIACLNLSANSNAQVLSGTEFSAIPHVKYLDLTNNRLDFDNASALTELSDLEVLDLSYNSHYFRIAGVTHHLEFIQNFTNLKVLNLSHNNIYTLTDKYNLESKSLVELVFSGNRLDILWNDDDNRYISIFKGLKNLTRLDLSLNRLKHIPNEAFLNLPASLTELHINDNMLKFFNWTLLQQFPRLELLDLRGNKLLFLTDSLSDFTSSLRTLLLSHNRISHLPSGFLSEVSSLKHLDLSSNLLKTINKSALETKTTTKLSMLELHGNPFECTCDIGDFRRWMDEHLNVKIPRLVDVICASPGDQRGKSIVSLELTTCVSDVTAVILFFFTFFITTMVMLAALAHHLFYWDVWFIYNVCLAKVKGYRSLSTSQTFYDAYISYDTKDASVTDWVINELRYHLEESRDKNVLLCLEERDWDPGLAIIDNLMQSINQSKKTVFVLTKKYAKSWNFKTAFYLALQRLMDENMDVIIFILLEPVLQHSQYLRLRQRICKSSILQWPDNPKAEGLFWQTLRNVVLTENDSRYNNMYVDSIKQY
Put plainly: TLR8 inhibition reporter assay (HEK-Blue cells, SEAP reporter, R848 stimulation). It is filed as cell-based. To be noted: HEK-Blue cells overexpressing human TLR8, SEAP reporter, R848 15.9 μM; read-out: TLR8 IC50. In outline:
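Compound treatment: 30 min, RT, 0.05 nM–50 μM final. Agonist: TLR7 gardiquimod 7.5 μM; TLR8 R848 15.9 μM; TLR9 ODN2006 5 nM. Incubation 22 h, 37 °C, 5% CO2. Readout SEAP, HEK-Blue Detection.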

Turning to `COc1cc(-c2[nH]c3sc(C4CCC(NC5COC5)CC4)nc3c2C(C)C)cn2ncnc12` (single isomer, unassigned) [Example 65, N-(4-(6-isopropyl-5-(8-methoxy-[1,2,4]triazolo[1,5-a]pyridin-6-yl)-4H-pyrrolo[3,2-d]thiazol-2-yl)cyclohexyl)oxetan-3-amine], the “% inhibition of IFN-alpha” value in test [1] (dose 0.001 mg/kg) came out at 50%; in test [1] (dose 0.005 mg/kg) it was 63%; in test [1] (dose 0.025 mg/kg), 97%; in test [1] (dose 0.050 mg/kg) it was 99%. The “% inhibition of IL6” value came to 21% in test [1] (dose 0.001 mg/kg), 42% in test [1] (dose 0.005 mg/kg), 78% in test [1] (dose 0.025 mg/kg) and 94% in test [1] (dose 0.050 mg/kg). In addition, the IC50 in test [2] is 1.37 nM.
